# Experiments:
# [1] = test system: chronic epilepsy in rats; conditions: administered intragastrically; cited from earlier work
# [2] = test system: SHG-44; test: Mitochondrial oxidative phosphorylation in glioma cells (ATP/ADP, NADH/NAD+, ATP); type: cell-based, human
# [3] = test system: C6; test: Intracellular glycolytic intermediates (LC-MS/MS) and FBP in culture medium; type: cell-based, rat; conditions: C6, 1.6 mM, 36 h
# Experimental: Rat glioma cell strains (C6), human glioma cell strains (U87-MG, U-251, SHG-44) and patient-derived glioma cells (tumor 1, tumor 3) were incubated in a culture medium containing 1.6 mM of trisodium fructose-1,6-bisphosphate, and after 36 h, levels of glycolytic intermediates including glucose-6-phosphate G6P, fructose-1,6-bisphosphate FBP, glyceraldehyde 3-phosphate (GAP), dihydroxyacetone phosphate (DHAP), and […] 3-phosphoglyceric acid PGA in respective cells were measured by using LC-MS/MS; and additionally, the levels of fructose-1,6-bisphosphate in each glioma cell strain at 12 h and 36 h were measured.
# [4] = test system: fructose-1,6-bisphosphatase 1; test: Kidney protein level of fructose-1,6-bisphosphatase 1 after 14 days treatment (Western Blot); type: in vivo; conditions: SD rats, 14 days i.g.; FBP 500 mg/kg, metformin 150 mg/kg, sitagliptin 20 mg/kg; vs control group
# Experimental: 180-200 g SD rats were divided into 4 groups: a saline control group, a trisodium fructose-1,6-bisphosphate hydrate group (500 mg/kg, i.g), a metformin group (150 mg/kg, i.g) or a sitagliptin group (20 mg/kg, i.g), and a trisodium fructose-1,6-bisphosphate and metformin or sitagliptin combination group, 5 rats in each group. All groups were intragastrically treated, metformin or sitagliptin was administrated 0.5 h before fructose-1,6-bisphosphate, and this was repeated in 14 consecutive days. At 3 hours after the last intragastric treatment with fructose-1,6-bisphosphate, rat blood was collected to detect the blood concentration of FBP, kidney tissue was taken and the protein level of fructose-1,6-bisphosphatase 1 was measured by Western Blot.
# [5] = test system: HCT-8; test: Cell viability, Sulforhodamine B (SRB) staining; type: cell-based, human; conditions: Homo sapiens, HCT-8, 72 h, FBP 0.8 mM
# Experimental: Human intestinal cancer cell strains SW620 and HCT-8, which had been incubated for 24 hours, were respectively incubated in a medium containing 0.8 mM of trisodium fructose-1,6-bisphosphate, a medium containing 0.2 mM of metformin/100 μM of sitagliptin, and a medium containing 0.8 mM of trisodium fructose-1,6-bisphosphate and 0.2 mM of metformin/100 μM of sitagliptin for 72 h. A control group (Con) was not treated with the agent. Cell viability was determined by Sulforhodamine B (SRB) staining analysis method.
# [6] = test system: glioma cells U87-MG; test: Lactic acid released by glioma cells (glycolysis); type: cell-based, human
# Experimental: Human glioma cell strains (U87-MG, KNS-89, SHG-44) were respectively incubated in culture media containing 0.8 mM of trisodium fructose-1,6-bisphosphate salt, and 1.6 mM of trisodium fructose-1,6-bisphosphate salt, and 1.6 mM of 2-deoxyglucose, and the contents of lactic acid as the final glycolytic product released by the cells in the culture media were measured after 12 h, 24 h, 36 h, and 48 h. […] Human glioma cell strain (U87-MG) was incubated in the culture medium containing 0.8 mM of trisodium fructose-1,6-bisphosphate salt for 1 h, 3 h, 6 h, 12 h, 24 h, 36 h, and 48 h, and level changes of key metabolic enzymes in the glycolytic pathway of cells were measured by Western Blot at the respective time points.
# [7] = healthy volunteers, intravenous infusion 250 mg/kg, cited from earlier work
# [8] = test system: C6; test: Reactive oxygen species and mitochondrial membrane potential; type: cell-based, rat; conditions: C6, 0.8 mM
# [9] = test system: Huh-7; test: Cell viability, Sulforhodamine B (SRB) staining; type: cell-based, human; conditions: Homo sapiens, Huh-7, 72 h, FBP 0.8 mM
# Experimental: Human liver cancer cell strains Bel-7402 and huh-7, which had been incubated for 24 hours, were respectively incubated in a medium containing 1.6 mM or 0.8 mM of trisodium fructose-1,6-bisphosphate, a medium containing 0.2 mM of metformin or 25 μM of sitagliptin, and a medium containing 0.8 mM of trisodium fructose-1,6-bisphosphate and 0.2 mM of metformin/25 μM of sitagliptin for 72 h. A control group (Con) was not treated with the agent. Cell viability was determined by Sulforhodamine B (SRB) staining analysis method.
# [10] = test system: C6; test: Mitochondrial oxidative phosphorylation in glioma cells (ATP/ADP, NADH/NAD+, ATP); type: cell-based, rat
smiles,measurement,setting,value
"O=C(COP(=O)(O)O)[C@@H](O)[C@H](O)[C@H](O)COP(=O)(O)O [FBP, fructose-1,6-bisphosphate]",long-term effective dose for chronic epilepsy,[1],100 to 200 mg/kg/day
same,ratio of ATP/ADP (CON = 1.00),"[2]; SHG-44, 0.8 mM or 1.6 mM, 36 h",3.82 ± 0.68
same,ratio of NADH/NAD+ (CON = 1.00),"[2]; SHG-44, 0.8 mM or 1.6 mM, 36 h",3.40 ± 0.15
same,ATP level,"[2]; SHG-44, 36 h, vs control group",significantly increased
same,Increase folds of intracellular DHAP (compared with the control group),[3],66.04 folds
same,Increase folds of intracellular F6P (compared with the control group),[3],19.89 folds
same,Increase folds of intracellular FBP (compared with the control group),[3],92.22 folds
same,Increase folds of intracellular GAP (compared with the control group),[3],132.85 folds
same,Increase folds of intracellular PGA (compared with the control group),[3],2.2 folds
same,"protein level of fructose-1,6-bisphosphatase 1 in kidney tissue (Western Blot)",[4],significantly up-regulated
same,viability at 800 µM,"[5]; STG 100 μM, read-out: cell viability (Con = 100)",85.9 ± 3.29%
same,cytotoxicity at 800 µM,"[5]; sitagliptin 100 μM, read-out: cell viability inhibited",41%
same,Relative levels of lactic acid (compared with the control group),"[6]; 0.8 mM, 12 h",0.96 ± 0.13
same,Relative levels of lactic acid (compared with the control group),"[6]; 0.8 mM, 24 h",0.73 ± 0.05
same,Relative levels of lactic acid (compared with the control group),"[6]; 0.8 mM, 36 h",0.56 ± 0.18
same,Relative levels of lactic acid (compared with the control group),"[6]; 1.6 mM, 12 h",1.09 ± 0.11
same,Relative levels of lactic acid (compared with the control group),"[6]; 1.6 mM, 24 h",0.71 ± 0.05
same,Relative levels of lactic acid (compared with the control group),"[6]; 1.6 mM, 36 h",0.39 ± 0.03
same,blood concentration,[7]; within 5 minutes,770 µg/mL
same,half-life,[7],10 to 15 min
same,Relative level of mitochondrial membrane potential (compared with the control group),[8]; 12 h,0.8 ± 0.14
same,Relative level of reactive oxygen species (compared with the control group),[8]; 12 h,1.26 ± 0.04
same,Relative level of mitochondrial membrane potential (compared with the control group),[8]; 24 h,0.6 ± 0.11
same,Relative level of reactive oxygen species (compared with the control group),[8]; 24 h,1.89 ± 0.03
same,Relative level of mitochondrial membrane potential (compared with the control group),[8]; 48 h,0.1 ± 0.09
same,Relative level of mitochondrial membrane potential (compared with the control group),[8]; 72 h,0.1 ± 0.07
same,viability at 800 µM,"[9]; STG 25 μM, read-out: cell viability (Con = 100)",80.4 ± 3.63%
same,cytotoxicity at 800 µM,"[9]; sitagliptin 25 μM, read-out: cell viability inhibited",20%
same,ratio of ATP/ADP (CON = 1.00),"[10]; C6, 0.8 mM or 1.6 mM, 36 h",10.89 ± 1.37
same,ratio of NADH/NAD+ (CON = 1.00),"[10]; C6, 0.8 mM or 1.6 mM, 36 h",7.76 ± 0.59
same,ATP level,"[10]; C6, 36 h, vs control group",significantly increased
